Assay type in all cases: cell-based
For one assay, the target named is T1, hERα (Homo sapiens, UniProt P03372).
T1 construct: expressed in transfected cells; host or cells: HEK 293 cells (ATCC CRL-1573)
As to the kind of experiment: ERα-Luc reporter gene activation in transfected HEK 293 cells. To be noted: 0 to 9 µg/ml, 20 hours. The source says: (§1) HEK 293 cells (ATCC CRL-1573) were transfected with an expression vector for hERα and hERβ respectively, and an ERE-LUC reporter gene (plus a TK-LUC reporter for normalization) following the protocol of Yoon et al ("Differential activation of wild-type and variant forms of estrogen receptor α by synthetic and natural estrogenic compounds using a promoter containing three estrogen-responsive elements", J. Steroid Biochem. & Molecular Biology (2000), 28: pages 25-32).
On the technique in general: A reporter such as luciferase makes a cellular process visible.

The next assay concerns LNCaP cells. The assay can be described thus: Cell cycle measurement by DNA content flow cytometry, LNCaP. Conditions: two concentrations, 24-48 hours exposure. Here is the method: (§2) The cells were washed with phosphate buffered saline (PBS) and fixed in ice-cold 70% ethanol. Aliquots of fixed cells were rehydrated in PBS and stained with 1.0 microgram/milliliter DAPI (4,6-diamidino-2-phenylindole from Eastman Kodak, Rochester, NY), and dissolved in 10 millimolar piperazine-N,N-bis-2-ethane-sulfonic acid buffer (Calbiochem, La Jolla, CA) containing 100 millimolar NaCl, 2mM MgCl2 and 0.1% Triton X-100 (Sigma) at pH 6.8 as previously described by Halicka et al. (H. D. Halicka, B. Ardelt, G. Juan, A. Mittelman, S. Chen, F. Traganos and Z. Darzynkiewicz, "Apoptosis and Cell Cycle Effects Induced by Extracts of the Chinese Herbal Preparation of PC SPES", International J. of Oncology (1997), 11: 437-448).
(§3) The cellular DNA content was measured with an ELITE ESP flow cytometer (Coulter Inc., F1.) using UV laser illumination. The multicycle program was used to deconvolute the DNA frequency histograms to estimate the frequency of cells in different phases of the cell cycle.
For orientation: In flow cytometry, cells or beads pass a laser one at a time.

Another assay has as its target T2, hERβ (Homo sapiens, UniProt Q92731).
T2 construct: expressed in transfected cells; host or cells: HEK 293 cells (ATCC CRL-1573)
As to the kind of experiment: ERβ-Luc reporter gene activation in transfected HEK 293 cells. To be noted: for capability in activating ERβ-Luc reporter gene than the ERα-Luc reporter gene: ERβ-Luc versus ERα-Luc, 1200 min; for ERβ-Luc reporter gene activation: HEK 293 cells, 0 to 9 µg/ml, 20 hours.
Description: as §1

Another assay relates to DU-145. The assay can be described thus: Cell cycle measurement by DNA content flow cytometry, DU-145. Conditions: protocol of Example 3. Here is the method: as §2, §3
A prolongation in the G2M phase leads to the suppression of DU-145 cell proliferation.

Assay [1] has as its system MCF-7 breast cancer cells. The assay can be described thus: MTT cell viability assay, MCF-7. To be noted: Homo sapiens, MCF7; concentration giving 50% inhibition of cancer cell growth, 72 hours, linear interpolation; read-out: ED50 values from MTT Assay, MCF7. The text has this:
(§4) Cancer cell lines: LNCaP, DU-145, and MCF-7 cells were purchased from the American Type Culture Collection. PTX 10, a taxol-resistant ovarian cancer cell line, was obtained from the Brander Cancer Research Laboratory, New York Medical College. Cells were maintained in RPMI 1640 culture media supplemented with 10% heat-inactivated FBS, 5 millimolar glutamine, 50 units/milliliter of penicillin G, and 50 […] of streptomycin. The cells were routinely seeded at 1X 10^5 cells/milliliter in T-75 flasks, allowed to attach overnight, then treated with the herbal extract. At different times, cells were harvested by trypsinization.
(§5) The MTT assay (MTT = 3-(4,5-dimethylthiazol-2-yl)-2,5-diphenyl tetrazolium bromide) was used to count viable cells. The assay reagents were purchased from Boehringer Mannheim (Roche Diagnosis Corp, Indianapolis, Indiana). […] The protocol for the cell , viability assay was provided by the manufacturer and modified in our laboratory as described below.
(§6) Prostate or breast (reference) cancer cells were seeded in 96 well microtiter plates at a concentration of 3x10^3 cells per well (MCF-7; breast cancer cells) or 6x10^3 cells per well (LNCaP or DU145; prostate cancer cells), in a volume of 100 microliters of cell culture medium. After 24 hours, 20 microliter aliquots of the compounds at various concentrations were added to the attached cells. […]
A general note: Tetrazolium dyes change colour on reduction, which living cells bring about.

Assay [2] deals with DU-145 (androgen-independent) prostate cancer cells. The assay can be described thus: MTT cell viability assay, DU-145. To be noted: Homo sapiens, DU-145, 72 h, read-out: ED50 values from MTT Assay, DU145.
Description: as §4, §5, §6

The test system of assay [3] is PTX 10, a taxol resistant ovarian cancer cell line. The assay can be described thus: MTT cell viability assay, PTX 10. To be noted: PTX10, 72 h, read-out: ED50, PTX 10 (taxol resistant Ovarian cancer cell).
Assay [4] has as its system LNCaP (androgen-dependent) prostate cancer cells. As to the kind of experiment: MTT cell viability assay, LNCaP. Conditions: Homo sapiens, 72 h, read-out: ED50 values from MTT Assay, LNCaP.
Description: as §4, §5, §6

In brackets after ≈: the same amount, converted by molar mass.

T2 sequence (Q92731 whole entry): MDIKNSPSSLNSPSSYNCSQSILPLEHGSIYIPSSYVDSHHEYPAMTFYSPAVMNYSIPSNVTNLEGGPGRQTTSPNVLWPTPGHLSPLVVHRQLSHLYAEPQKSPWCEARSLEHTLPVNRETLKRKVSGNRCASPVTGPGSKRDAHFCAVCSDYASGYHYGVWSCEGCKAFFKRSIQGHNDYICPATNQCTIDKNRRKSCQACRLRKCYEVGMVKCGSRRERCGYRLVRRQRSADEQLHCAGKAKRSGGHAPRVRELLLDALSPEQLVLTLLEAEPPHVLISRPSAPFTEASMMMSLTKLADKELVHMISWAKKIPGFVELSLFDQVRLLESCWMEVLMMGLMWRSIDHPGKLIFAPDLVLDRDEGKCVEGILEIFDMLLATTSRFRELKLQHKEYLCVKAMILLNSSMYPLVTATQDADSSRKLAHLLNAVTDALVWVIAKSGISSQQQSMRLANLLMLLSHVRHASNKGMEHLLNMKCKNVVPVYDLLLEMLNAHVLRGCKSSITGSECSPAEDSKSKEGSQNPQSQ
T1 sequence (P03372 whole entry): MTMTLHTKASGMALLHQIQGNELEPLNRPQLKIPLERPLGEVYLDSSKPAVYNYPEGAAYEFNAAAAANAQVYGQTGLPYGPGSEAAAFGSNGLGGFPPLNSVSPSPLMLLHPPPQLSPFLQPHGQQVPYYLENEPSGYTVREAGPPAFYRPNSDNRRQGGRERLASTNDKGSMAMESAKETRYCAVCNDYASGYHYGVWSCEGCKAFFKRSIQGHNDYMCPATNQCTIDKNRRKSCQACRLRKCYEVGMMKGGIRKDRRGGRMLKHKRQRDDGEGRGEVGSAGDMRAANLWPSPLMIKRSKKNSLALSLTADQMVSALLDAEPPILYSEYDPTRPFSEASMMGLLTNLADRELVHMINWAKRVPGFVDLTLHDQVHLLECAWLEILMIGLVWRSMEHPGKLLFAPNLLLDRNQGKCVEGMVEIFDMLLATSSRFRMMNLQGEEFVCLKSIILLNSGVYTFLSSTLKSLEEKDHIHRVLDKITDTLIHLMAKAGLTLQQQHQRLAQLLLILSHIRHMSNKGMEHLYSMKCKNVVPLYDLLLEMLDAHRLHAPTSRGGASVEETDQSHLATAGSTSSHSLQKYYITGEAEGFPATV

`COc1c(O)cc(O)c2c(=O)cc(-c3ccccc3)oc12` [Wogonin, 5,7-dihydroxy-8-methoxy-flavone]: the “ERα-Luc reporter gene activation” value at hERα was “dose-responsive behavior”. The “effect on G1, S, and G2M phases of the LNCaP cell cycle” value in the assay on LNCaP cells was “G1 phase arrest”. On hERβ, the “capability in activating ERβ-Luc reporter gene than the ERα-Luc reporter gene” value is reported as “at least 10 times” and the “ERβ-Luc reporter gene activation” value is “dose-responsive behavior”. In the assay on DU-145, the “effect on DU-145 cell cycle” value is given as “prolonged the G2M phase”.

As for `O=C(/C=C/c1ccc(O)cc1)c1ccc(O)cc1O` [isoliquiritigenin, 2',4,4'-trihydroxychalcone], the “ERα-Luc reporter gene activation” value on hERα was “dose-responsive behavior”. In addition, in the assay on LNCaP cells, the “effect on G1, S, and G2M phases of the LNCaP cell cycle” value is “G2M phase arrest”. For the same molecule, the IC50 amounted to 3.25 µg/mL (≈ 12.7 µM) in assay [1], 7.6 µg/mL (≈ 29.7 µM) in assay [2], 3.32 µg/mL (≈ 13 µM) in assay [3] and 3.51 µg/mL (≈ 13.7 µM) in assay [4]. Besides, the “capability in activating ERβ-Luc reporter gene than the ERα-Luc reporter gene” value on hERβ is reported as “at least 10 times”. Moreover, the “ERβ-Luc reporter gene activation” value on hERβ is “dose-responsive behavior”.

The record behind these values is EP1487434B1, “BOTANICAL EXTRACT COMPOSITIONS WITH ANTI-CANCER ACTIVITY COMPRISING ISOLIQUIRITIGENIN” (The Medical Research and Education Trust, priority 2002, dated 2003).
